Data: patent US20240043404A1 (AbbVie Inc., priority 2009, published 2024)

System: RS4;11 cells
Assay: RS4;11 cell viability assay (CellTiter Glo);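 note: acute lymphoblastic leukemia line RS4,11, EC50 derived from percentage of viable cells after treatment relative to untreated controls, cell killing taken as a measure of Bcl-2 inhibition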
Type: cell-based, human
Conditions: Homo sapiens, RS4-11, 48 h, 50,000 cells per well, 10% human serum, 48 hours; read-out: RS4; 11 EC50 Values
Description: The acute lymphoblastic leukemia (ALL) cell line RS4;11 was used as the primary human cell line to assess the cellular activity of Bcl-2 selective agents in vitro and their efficacy in vivo.
Cell cytotoxicity EC50 values were assessed using CellTiter Glo (Promega) according to the manufacturer's recommendations. The EC50 values were determined as a percentage of viable cells following treatment compared to the untreated control cells.

Row | Structure (SMILES) | EC50 [µM]
1 | CC1(C)CCC(CN2CCN(c3ccc(C(=O)NS(=O)(=O)c4ccc(NCCC#N)c([N+](=O)[O-])c4)c(Oc4cnc5[nH]ccc5c4)c3)CC2)=C(c2ccc(Cl)cc2)C1 [Example 62, 4-(4-{[2-(4-chlorophenyl)-4,4-dimethylcyclohex-1-en-1-yl]methyl}piperazin-1-yl)-N-({4-[(2-cyanoethyl)amino]-3-nitrophenyl}sulfonyl)-2-(1H-pyrrolo[2,3-b]pyridin-5-yloxy)benzamide] | 0.0251
2 | CC1(C)CCC(CN2CCN(c3ccc(C(=O)NS(=O)(=O)c4cc(F)c(F)c(OCC5(F)CCOCC5)c4)c(Oc4cnc5[nH]ccc5c4)c3)CC2)=C(c2ccc(Cl)cc2)C1 [Example 313, 4-(4-{[2-(4-chlorophenyl)-4,4-dimethylcyclohex-1-en-1-yl]methyl}piperazin-1-yl)-N-({3,4-difluoro-5-[(4-fluorotetrahydro-2H-pyran-4-yl)methoxy]phenyl}sulfonyl)-2-(1H-pyrrolo[2,3-b]pyridin-5-yloxy)benzamide] | > 1
3 | CC1(C)CCC(CN2CCN(c3ccc(C(=O)NS(=O)(=O)c4ccc(N[C@H]5CC[C@@H](N6CCOCC6)C5)c([N+](=O)[O-])c4)c(Oc4cnc5[nH]ccc5c4)c3)CC2)=C(c2ccc(Cl)cc2)C1 [Example 111, 4-(4-{[2-(4-chlorophenyl)-4,4-dimethylcyclohex-1-en-1-yl]methyl}piperazin-1-yl)-N-[(4-{[(1S,3R)-3-morpholin-4-ylcyclopentyl]amino)-3-nitrophenyl)sulfonyl]-2-(1H-pyrrolo[2,3-b]pyridin-5-yloxy)benzamide] | 0.0145
4 | COC1(Cc2ccccc2-c2ccc(Cl)cc2)CCN(c2ccc(C(=O)NS(=O)(=O)c3cnc(OCC4(F)CCOCC4)c(Cl)c3)c(Oc3cnc4[nH]ccc4c3)c2)CC1 [Example 263, 4-{4-[(4′-chlorobiphenyl-2-yl)methyl]-4-methoxypiperidin-1-yl}-N-({5-chloro-6-[(4-fluorotetrahydro-2H-pyran-4-yl)methoxy]pyridin-3-yl}sulfonyl)-2-(1H-pyrrolo[2,3-b]pyridin-5-yloxy)benzamide] | > 1
5 | CC1(C)CCC(CN2CCN(c3ccc(C(=O)NS(=O)(=O)c4cnc(OCC5CCN(c6nccs6)CC5)c(Cl)c4)c(Oc4cnc5[nH]ccc5c4)c3)CC2)=C(c2ccc(Cl)cc2)C1 [Example 375, 4-(4-{[2-(4-chlorophenyl)-4,4-dimethylcyclohex-1-en-1-yl]methyl}piperazin-1-yl)-N-[(5-chloro-6-{[1-(1,3-thiazol-2-yl)piperidin-4-yl]methoxy}pyridin-3-yl)sulfonyl]-2-(1H-pyrrolo[2,3-b]pyridin-5-yloxy)benzamide] | 0.56
6 | CC1(C)CC(c2ccc(Cl)cc2)=C(CN2CCN(c3ccc(C(=O)NS(=O)(=O)c4ccc(NCC5CCOCC5)c(C(F)(F)F)c4)c(Oc4cnc5[nH]ccc5c4)c3)CC2)CO1 [Example 42, 4-(4-{[4-(4-chlorophenyl)-6,6-dimethyl-5,6-dihydro-2H-pyran-3-yl]methyl}piperazin-1-yl)-2-(1H-pyrrolo[2,3-b]pyridin-5-yloxy)-N-{[4-[(tetrahydro-2H-pyran-4-ylmethyl)amino]-3-(trifluoromethyl)phenyl]sulfonyl}benzamide] | 0.534
7 | COCC1CCC(CNc2ccc(S(=O)(=O)NC(=O)c3ccc(N4CCN(CC5=C(c6ccc(Cl)cc6)CC(C)(C)CC5)CC4)cc3Oc3cnc4[nH]ccc4c3)cc2[N+](=O)[O-])CC1 (stereo not shown) [Example 374, 4-(4-{[2-(4-chlorophenyl)-4,4-dimethylcyclohex-1-en-1-yl]methyl}piperazin-1-yl)-N-{[4-({[4-(methoxymethyl)cyclohexyl]methyl}amino)-3-nitrophenyl]sulfonyl}-2-(1H-pyrrolo[2,3-b]pyridin-5-yloxy)benzamide] | 0.0155
8 | CC1(C)CCC(CN2CCN(c3ccc(C(=O)NS(=O)(=O)c4ccc(NN5CCN(C6COC6)CC5)c([N+](=O)[O-])c4)c(Oc4cnc5[nH]ccc5c4)c3)CC2)=C(c2ccc(Cl)cc2)C1 [Example 236, 4-(4-{[2-(4-chlorophenyl)-4,4-dimethylcyclohex-1-en-1-yl]methyl}piperazin-1-yl)-N-[(3-nitro-4-{[4-(oxetan-3-yl)piperazin-1-yl]amino}phenyl)sulfonyl]-2-(1H-pyrrolo[2,3-b]pyridin-5-yloxy)benzamide] | 0.0429
9 | CC1(C)CCC(CN2CCN(c3ccc(C(=O)NS(=O)(=O)c4cnc(OCCC5CCOCC5)c(C#N)c4)c(Oc4cnc5[nH]ccc5c4)c3)CC2)=C(c2ccc(Cl)cc2)C1 [Example 278, 4-(4-{[2-(4-chlorophenyl)-4,4-dimethylcyclohex-1-en-1-yl]methyl}piperazin-1-yl)-N-({5-cyano-6-[2-(tetrahydro-2H-pyran-4-yl)ethoxy]pyridin-3-yl}sulfonyl)-2-(1H-pyrrolo[2,3-b]pyridin-5-yloxy)benzamide] | 0.794
10 | CC1(C)CCC(CN2CCN(c3ccc(C(=O)NS(=O)(=O)c4ccc(NCCCN(C5CCC5)C5CC5)c([N+](=O)[O-])c4)c(Oc4cnc5[nH]ccc5c4)c3)CC2)=C(c2ccc(Cl)cc2)C1 [Example 320, 4-(4-{[2-(4-chlorophenyl)-4,4-dimethylcyclohex-1-en-1-yl]methyl}piperazin-1-yl)-N-{[4-({3-[cyclobutyl(cyclopropyl)amino]propyl}amino)-3-nitrophenyl]sulfonyl}-2-(1H-pyrrolo[2,3-b]pyridin-5-yloxy)benzamide] | 0.051
11 | CC1(C)CCC(CN2CCN(c3ccc(C(=O)NS(=O)(=O)c4ccc(OCC5(F)CCOCC5)c(Cl)c4)c(Oc4cnc5[nH]ccc5c4)c3)CC2)=C(c2ccc(Cl)cc2)C1 [Example 286, N-({3-chloro-4-[(4-fluorotetrahydro-2H-pyran-4-yl)methoxy]phenyl}sulfonyl)-4-(4-{[2-(4-chlorophenyl)-4,4-dimethylcyclohex-1-en-1-yl]methyl}piperazin-1-yl)-2-(1H-pyrrolo[2,3-b]pyridin-5-yloxy)benzamide] | 0.0345
12 | CO[C@H]1CC[C@@H](COc2ncc(S(=O)(=O)NC(=O)c3ccc(N4CCN(CC5=C(c6ccc(Cl)cc6)CC(C)(C)CC5)CC4)cc3Oc3cnc4[nH]ccc4c3)cc2C(F)(F)F)CC1 [Example 301, 4-(4-{[2-(4-chlorophenyl)-4,4-dimethylcyclohex-1-en-1-yl]methyl}piperazin-1-yl)-N-({6-[(cis-4-methoxycyclohexyl)methoxy]-5-(trifluoromethyl)pyridin-3-yl}sulfonyl)-2-(1H-pyrrolo[2,3-b]pyridin-5-yloxy)benzamide] | > 1

These reach a lower EC50. Values come first.

Row | EC50 [µM] | Structure (SMILES)
13 | 0.00978 | O=C(NS(=O)(=O)c1ccc(NCC2CN(C3CC3)CCO2)c([N+](=O)[O-])c1)c1ccc(N2CCN(CC3=C(c4ccc(Cl)cc4)CC4(CC3)CC4)CC2)cc1Oc1cnc2[nH]ccc2c1 (stereo not shown) [Example 330, 4-(4-{[5-(4-chlorophenyl)spiro[2.5]oct-5-en-6-yl]methyl}piperazin-1-yl)-N-[(4-{[(4-cyclopropylmorpholin-2-yl)methyl]amino}-3-nitrophenyl)sulfonyl]-2-(1H-pyrrolo[2,3-b]pyridin-5-yloxy)benzamide]
14 | 0.0061 | COCCOCCN1CCOC(CNc2ccc(S(=O)(=O)NC(=O)c3ccc(N4CCN(CC5=C(c6ccc(Cl)cc6)CC(C)(C)CC5)CC4)cc3Oc3cnc4[nH]ccc4c3)cc2[N+](=O)[O-])C1 (stereo not shown) [Example 213, 4-(4-{[2-(4-chlorophenyl)-4,4-dimethylcyclohex-1-en-1-yl]methyl}piperazin-1-yl)-N-({4-[({4-[2-(2-methoxyethoxy)ethyl]morpholin-2-yl}methyl)amino]-3-nitrophenyl}sulfonyl)-2-(1H-pyrrolo[2,3-b]pyridin-5-yloxy)benzamide]
15 | 0.00296 | CC(=O)N1CCOC(CNc2ccc(S(=O)(=O)NC(=O)c3ccc(N4CCN(CC5=C(c6ccc(Cl)cc6)CC(C)(C)CC5)CC4)cc3Oc3cnc4[nH]ccc4c3)cc2[N+](=O)[O-])C1 (stereo not shown) [Example 136, N-[(4-{[(4-acetylmorpholin-2-yl)methyl]amino}-3-nitrophenyl)sulfonyl]-4-(4-{[2-(4-chlorophenyl)-4,4-dimethylcyclohex-1-en-1-yl]methyl}piperazin-1-yl)-2-(1H-pyrrolo[2,3-b]pyridin-5-yloxy)benzamide]
16 | 0.00155 | CC1(C)CCC(CN2CCN(c3ccc(C(=O)NS(=O)(=O)c4ccc(NCC5CN(C6COC6)CCO5)c([N+](=O)[O-])c4)c(Oc4cnc5[nH]ccc5c4)c3)CC2)=C(c2ccc(Cl)cc2)C1 (stereo not shown) [Example 217, 4-(4-{[2-(4-chlorophenyl)-4,4-dimethylcyclohex-1-en-1-yl]methyl}piperazin-1-yl)-N-{[3-nitro-4-({[4-(oxetan-3-yl)morpholin-2-yl]methyl}amino)phenyl]sulfonyl}-2-(1H-pyrrolo[2,3-b]pyridin-5-yloxy)benzamide]
17 | 0.00056 | CN(C)CC(=O)N1CCOC(CNc2ccc(S(=O)(=O)NC(=O)c3ccc(N4CCN(CC5=C(c6ccc(Cl)cc6)CC(C)(C)CC5)CC4)cc3Oc3cnc4[nH]ccc4c3)cc2[N+](=O)[O-])C1 (stereo not shown) [Example 215, 4-(4-{[2-(4-chlorophenyl)-4,4-dimethylcyclohex-1-en-1-yl]methyl}piperazin-1-yl)-N-{[4-({[4-(N,N-dimethylglycyl)morpholin-2-yl]methyl}amino)-3-nitrophenyl]sulfonyl}-2-(1H-pyrrolo[2,3-b]pyridin-5-yloxy)benzamide]
18 | 0.000553 | CN(C)CC(=O)N1CCO[C@H](CNc2ccc(S(=O)(=O)NC(=O)c3ccc(N4CCN(CC5=C(c6ccc(Cl)cc6)CC(C)(C)CC5)CC4)cc3Oc3cnc4[nH]ccc4c3)cc2[N+](=O)[O-])C1 [Example 258, 4-(4-{[2-(4-chlorophenyl)-4,4-dimethylcyclohex-1-en-1-yl]methyl}piperazin-1-yl)-N-{[4-({[(2R)-4-(N,N-dimethylglycyl)morpholin-2-yl]methyl}amino)-3-nitrophenyl]sulfonyl}-2-(1H-pyrrolo[2,3-b]pyridin-5-yloxy)benzamide]
19 | 0.00025 | CN1CCC(CNc2ccc(S(=O)(=O)NC(=O)c3ccc(N4CCN(CC5=C(c6ccc(Cl)cc6)CC(C)(C)CC5)CC4)cc3Oc3cnc4[nH]ccc4c3)cc2[N+](=O)[O-])CC1 [Example 65, 4-(4-{[2-(4-chlorophenyl)-4,4-dimethylcyclohex-1-en-1-yl]methyl}piperazin-1-yl)-N-[(4-{[(1-methylpiperidin-4-yl)methyl]amino}-3-nitrophenyl)sulfonyl]-2-(1H-pyrrolo[2,3-b]pyridin-5-yloxy)benzamide]
